Test results: patent US20260286012A1, “ANTI-OUABAIN NANOBODY AND APPLICATION THEREOF” (priority 2023, published 2026)

What was measured:
Hela cells [1] = assay: Flow cytometry assay for intracellular Ca2+ level; type: cell-based; settings: 250 nM ouabain vs control group
Procedure: The cells were cultured in a 12-well cell culture dish. When the cell growth density reached 60% to 80%, a drug could be added to treat the cells. The medium was removed from the treated cells under dark conditions, and the cells were rinsed with pre-warmed HBSS for three times to eliminate esterases and other substances in the medium to reduce their degradation to an ion probe. 1-5 μM of Fluo4-AM working solution was added, such that the cells were completely covered with the working solution and incubated in a cell incubator for 40 min at a constant temperature. The Fluo4-AM working solution was discarded, and the cells were washed with HBSS for three times to thoroughly remove any remaining dye Subsequently. […]
(§1) High-concentration ouabain can lead to apoptosis of cells. To study the pharmacological effect of ouabain Nb, this study treated Hela cells with ouabain and ouabain Nb, and detected the effects of ouabain and antibody protein on the cell survival rate by an MTT method. […] To further verify the biological activity of ouabain Nb, the Ca^2+ concentration in the HeLa cells was detected by neutralizing ouabain monomers with ouabain Nb. […] After incubation of ouabain Nb (5 μM) and ouabain, the cells were treated and the Ca^2+ concentration was detected.

Hela cells [2] = assay: MTT determination of cell survival rate; type: cell-based; design: dose or concentration left out as unconfirmed; settings: ouabain for 48 h and 24 h, respectively
Procedure: By methyl thiazolyl tetrazolium (MTT), the cell survival rate was measured. When the cell density in a 6-well plate reached 80%-90%, the cells were digested, and centrifuged at 1000 rpm for 5 min; a cell precipitate was left, added with 1 mL of culture solution and then resuspended; and the cells were counted with a cell counting plate. 100 µL of cell suspension was added to a 96 ELISA plate at 1×10^4 cells/well, and sterile PBS was added around cell wells. The cells were cultured on a 96-well plate for 12 to 24 h. When the cell growth density reached 60% to 80%, a drug could be added to treat the cells at this point. […] The absorbance of each well was detected with a microplate reader at 490 nm and the cell survival rate was calculated. […]
as §1

C[C@@H]1O[C@@H](O[C@H]2C[C@@H](O)[C@]3(CO)[C@H]4[C@H](O)C[C@]5(C)[C@@H](C6=CC(=O)OC6)CC[C@]5(O)[C@@H]4CC[C@]3(O)C2)[C@H](O)[C@H](O)[C@H]1O [ouabain, Ouabain]
Ca2+ concentration in HeLa cells (Hela cells [1]): significantly higher than that in the control group | survival rate of the cells treated with ouabain (Hela cells [2]): reduced to half of the original
